Data on five molecules can be found in paper PMC6121307, “Cloning and Functional Characterisation of the Duplicated RDL Subunits from the Pea Aphid, Acyrthosiphon pisum” (International Journal of Molecular Sciences, 2018).

Read-outs that look alike come from different tables or passages of the source.

Assay [1] concerns the target T1, Apisum RDL1ad (Acyrthosiphon pisum, UniProt A0A385J708).
T1 sequence (A0A385J708 33-567): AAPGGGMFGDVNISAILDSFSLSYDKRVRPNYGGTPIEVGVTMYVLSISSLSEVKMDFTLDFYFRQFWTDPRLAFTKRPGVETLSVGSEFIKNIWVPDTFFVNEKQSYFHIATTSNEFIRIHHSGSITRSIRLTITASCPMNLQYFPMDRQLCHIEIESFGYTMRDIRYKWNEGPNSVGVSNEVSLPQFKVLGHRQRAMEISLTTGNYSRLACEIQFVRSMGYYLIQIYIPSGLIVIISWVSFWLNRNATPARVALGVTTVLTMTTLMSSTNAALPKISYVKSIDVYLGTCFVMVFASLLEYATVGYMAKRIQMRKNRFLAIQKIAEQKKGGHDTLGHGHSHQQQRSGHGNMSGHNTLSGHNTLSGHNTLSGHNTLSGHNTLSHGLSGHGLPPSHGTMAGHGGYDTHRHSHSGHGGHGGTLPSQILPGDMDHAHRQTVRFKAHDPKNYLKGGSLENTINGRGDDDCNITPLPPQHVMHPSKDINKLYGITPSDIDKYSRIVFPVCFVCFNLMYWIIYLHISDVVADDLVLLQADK
The assay can be described thus: GABA concentration response, two-electrode voltage-clamp in X. laevis oocytes. The format is cell-based. Here is the method: (§1) Functional studies of Apisum RDL1ad, Apisum RDL1bd and Apisum RDL2b variant 1 were performed using the X. laevis expression system and two-electrode voltage-clamp electrophysiology. Stage V and VI X. laevis oocytes were harvested and rinsed with Ca^2+ free solution (82 mM NaCl, 2 mM KCl, 2 mM MgCl2, 5 mM HEPES, pH 7.4), before defolliculating with 1 mg/mL type IA collagenase (Sigma, St. Louis, MO, USA) in Ca^2+ free solution. Defolliculated oocytes were injected with 2.3 ng (23 nL) Apisum Rdl plasmid DNA into the nucleus of the oocyte and stored in standard Barth’s solution (supplemented with 50 µg/mL neomycin and 10 µg/mL penicillin/streptomycin) at 17.5 °C.
(§2) Oocytes 1–7 days post-injection were placed in a recording chamber and clamped at −60 mV with 3 M KCl filled borosilicate glass electrodes (resistance 0.5–5 MΩ) and an Oocyte Clamp OC-725C amplifier (Warner Instruments, CT, USA). Responses were recorded on a flatbed chart recorder (Kipp & Zonen BD-11E, Delft, The Netherlands). Oocytes were perfused with standard oocyte saline (SOS; 100 mM NaCl, 2 mM KCl, 1.8 mM CaCl2, 1 mM MgCl2, 5 mM HEPES, pH 7.6) at a flow rate of 10 mL/min. Oocytes were selected for experiments if stable after three or more consecutive challenges of GABA at EC50 concentration. The GABA EC50 concentration was determined using GABA concentration response curves, which were generated by challenging oocytes to increasing concentrations of GABA in SOS, with 3 min between challenges. Curves were calculated by normalising the GABA current responses to maximal responses induced by GABA before and after application.
(§3) Data are presented as mean ± SEM of individual oocytes from three or more separate frogs. The concentration of GABA required to evoke 50% of the maximum response (EC50), the concentration of fipronil required to inhibit 50% of the maximal GABA response (IC50), and the Hill coefficient (nH) were determined by non-linear regression using Graphpad Prism 5 (Graphpad Software, CA, USA). Statistical significance was determined as p < 0.05, performed using one-way ANOVA (Graphpad Software, CA, USA).

The target in assay [2] is T2, Apisum RDL2b variant 1 (Acyrthosiphon pisum, UniProt A0A385J709). Described as above. The format is cell-based. Here is the method: as §1, §2, §3
Assay [3] addresses T3, Apisum RDL1bd (Acyrthosiphon pisum, UniProt A0A385J708).
T3 sequence (A0A385J708 33-567): T1 sequence (A0A385J708 33-567)
Described as above. The assay is classed as cell-based. Here is the method:
as §1, §2, §3

For assay [4], the target named is T1, Apisum RDL1ad. The assay can be described thus: Antagonistic actions of neonicotinoids on GABA-induced currents, two-electrode voltage-clamp in X. laevis oocytes. The assay is classed as cell-based. To be noted: for activity at 100 µM: read-out: % of GABA Response with 100 μM neonicotinoid. Here is the method: as §1, §2
(§4) Insecticides were initially diluted in dimethylsulphoxide (DMSO), before diluting to final concentrations in SOS.
(§5) For measuring the antagonistic actions of neonicotinoids, oocytes were initially incubated with a perfusion of the neonicotinoid in SOS for 6 min, before challenging with a combination of neonicotinoid and either the respective EC50 GABA concentration or 1 mM GABA.
A general note: Two-electrode voltage clamp holds a large cell at a set potential and records current.

For assay [5], the target named is T3, Apisum RDL1bd. The assay is described as above. The following applies: for effect on responses induced by GABA: 100 μM neonicotinoid. The format is cell-based. Here is the method: as §1, §2, §4, §5
The target of assay [6] is T1, Apisum RDL1ad. The assay can be described thus: Fipronil inhibition of GABA EC50 induced currents, two-electrode voltage-clamp in X. laevis oocytes. The format is cell-based. To be noted: GABA at EC50 (20 μM); 3 min pre-incubation; mean ± SEM. Here is the method:
as §1, §2
(§6) Insecticides were initially diluted in dimethylsulphoxide (DMSO), before diluting to final concentrations in SOS. […]
(§7) Data are presented as mean ± SEM of individual oocytes from three or more separate frogs. […] Statistical significance was determined as p < 0.05, performed using one-way ANOVA (Graphpad Software, CA, USA).

In assay [7] the target is T2, Apisum RDL2b variant 1. The assay is described as above. The assay is classed as cell-based. The following applies: GABA at EC50 (30 μM); 3 min pre-incubation; mean ± SEM. As for the experimental part:
as §1, §2, §6, §7

In assay [8] the target is T3, Apisum RDL1bd. The assay is described as above. The following applies: GABA at EC50 (50 μM); 3 min pre-incubation; mean ± SEM. The format is cell-based. Here is the method:
as §1, §2, §6, §7

The subject of another assay is An. gambiae RDL. Further details: method as in PMID 26296809. To be noted: 100 μM; expressed in Xenopus oocytes; cited from earlier work.
The subject of assay [9] is cultured honey bee Kenyon cells. Set-up: method as in PMID 11872245. To be noted: cited from earlier work.
In a further assay the test system is A. mellifera RDL. Set-up: method as in PMID 27288983. To be noted: 100 μM; expressed in Xenopus oocytes; cited from earlier work.
The next assay relates to Apisum RDL2b var 1. As to the kind of experiment: Antagonistic actions of neonicotinoids on GABA-induced currents, two-electrode voltage-clamp in X. laevis oocytes. The format is cell-based, Acyrthosiphon pisum. Here is the method:
as §1
as §2, with “The GABA EC50 concentration was determined using GABA concentration response curves, which were generated by challenging oocytes to increasing concentrations of GABA in SOS, with 3 min between challenges.” left out, “application. […]” for “application.”

Where [10] appears, read: initial 250 μM GABA response, eggs clamped at −60 mV, mean ± SEM.
Where [11] appears, read: 100 μM neonicotinoid, GABA at 1 mM.
Setting [12] is: 100 μM neonicotinoid, GABA at EC50 concentration.

In the case of `NCCCC(=O)O` [GABA, γ-aminobutyric acid], the “Imax (maximum amplitude)” value on Apisum RDL1ad [1] (setting [10]) is 1.6 ± 0.6 μA; on Apisum RDL2b variant 1 [2] (setting [10]), 1.4 ± 1.5 μA; on Apisum RDL1bd [3] (setting [10]) it was 1.4 ± 1.3 μA. In addition, the EC50 came out at 23 ± 1.7 µM at Apisum RDL1ad [1] (mean ± SEM of 4-5 oocytes), 28 ± 5.4 µM on Apisum RDL2b variant 1 [2] (mean ± SEM of 4-5 oocytes) and 51 ± 9.2 µM on Apisum RDL1bd [3] (mean ± SEM of 4-5 oocytes). The “GABA nH (hill coefficient)” value at Apisum RDL1ad [1] (mean ± SEM of 4-5 oocytes) turned out to be 1.6 ± 0.1; on Apisum RDL2b variant 1 [2] (mean ± SEM of 4-5 oocytes) it was 1.0 ± 0.1; at Apisum RDL1bd [3] (mean ± SEM of 4-5 oocytes) it was 2.0 ± 0.3.

As to `CN/C(=N\[N+](=O)[O-])NCc1cnc(Cl)s1` [CLO, clothianidin], the “effect on responses induced by GABA” value on Apisum RDL1ad [4] (setting [11]), at Apisum RDL1ad [4] (setting [12]), on Apisum RDL1bd [5] (GABA at 1 mM) and on Apisum RDL1bd [5] (GABA at EC50 concentration) was “no antagonistic actions” each time. In addition, the activity at 100 µM on Apisum RDL1ad [4] was found to be 100%. Moreover, the “% of GABA Response with 100 μM neonicotinoid” value (shortened to “% of GABA Response”) at Apisum RDL1bd [5] (GABA at EC50) is 100%.

In the case of `N#Cc1nn(-c2c(Cl)cc(C(F)(F)F)cc2Cl)c(N)c1[S+]([O-])C(F)(F)F` (stereo not shown) [Fipronil, fipronil], the IC50 at Apisum RDL1ad [6] is 0.64 ± 0.15 µM; on Apisum RDL2b variant 1 [7], 0.72 ± 0.19 µM; on Apisum RDL1bd [8], 0.18 ± 0.06 µM.

Turning to `O=[N+]([O-])NC1=NCCN1Cc1ccc(Cl)nc1` [IMI, imidacloprid], the “action on RDL” value in the assay on An. gambiae RDL and with A. mellifera RDL was “acted as an antagonist” in each case. Besides, in assay [9], the “effect on GABA-induced responses” value is on record as “reduce GABA-induced responses”. In addition, the “effect on responses induced by GABA” value at Apisum RDL1ad [4] (setting [11]), on Apisum RDL1ad [4] (setting [12]), on Apisum RDL1bd [5] (GABA at 1 mM) and on Apisum RDL1bd [5] (GABA at EC50 concentration) was “no detectable effect” each time. Also, the activity at 100 µM at Apisum RDL1ad [4] (GABA at EC50, 100 μM neonicotinoid) is 100%. Moreover, the “% of GABA Response” value on Apisum RDL1bd [5] (GABA at EC50) is reported as 100%.

As to `N#C/N=C1\SCCN1Cc1ccc(Cl)nc1` [THI, thiacloprid], the “% of GABA Response” value in the assay on Apisum RDL2b var 1 (GABA at EC50) is on record as 62 ± 2%; in the assay on Apisum RDL2b var 1 (GABA at EC50, listed as thiacloprid), 62%; on Apisum RDL1bd [5] (GABA at EC50, 100 µM), 55 ± 7%; at Apisum RDL1bd [5] (GABA at EC50, listed as thiacloprid, 100 µM), 55%.

Broadly, the EC50 is the concentration that produces a half-maximal response. As a reminder, the IC50 is the midpoint of a concentration-inhibition curve.
